In brackets after ≈: the same amount, converted by molar mass. Read-outs that look alike come from different tables or passages of the source.
What was measured:
[1] = Equilibrium solubility, shake-flask method; type: physicochemical; settings: for solubility at 24 h: thermodynamic from solid, read-out: Solubility S2 × 10^6
Procedure: The standard shake-flask method was applied to determine solubility. The saturated solutions of the studied compound were obtained in glass screw-capped vials with the respective solvent, which were vigorously stirred in an air thermostat. The volumes of water, 1-octanol, n-hexane, and ethanol equaled 7, 2, 7, and 2 mL, respectively. […] After this time period, the saturated solutions stayed in the thermostat during the night, and then the non-dissolved substance was separated from the solution via centrifugation (Biofuge pico, Thermo Electron LED GmbH, Langenselbold, Germany) at the respective temperature for 20 min at 10,000 rpm. […] The experimental results were reported as an average of at least three replicated experiments with an accuracy of 2–4%.
The dissolution thermodynamic parameters on the standard state were determined using mole fraction unitary units. Recalculation of the molar solubility to the mole fraction was made as follows:(1) X2=M1S2/S2(M1−M2)+1000ρ, where S2 is the molar solubility of solute (M), M1 and M2 are the molar masses of solvent and solute, respectively, and ρ (g∙cm^−3) is the density of pure solvents. […] The density values of the pure solvents were used in calculations (Table S1).

[2] = Apparent distribution coefficient, 1-octanol/water, isothermal shake-flask; type: physicochemical; settings: 298.15 K
Procedure: (§1) The well-known isothermal shake-flask method was applied for the determination of the apparent distribution coefficients in the 1-octanol/water ( Dappoct/w ) and n-hexane/water ( Dapphex/w ) systems. The mutually saturated solvents were prepared by mixing water and organic phases for 24 h and settling and separating from each other. The stock solutions of the drug were made from 1-octanol saturated with water for the 1-octanol/water distribution, and n-hexane saturated with water for the n-hexane/water system. An aliquot of the stock solution was placed in a glass vial together with an aliquot of the respective phase and mixed for 24 h at five temperatures, from 293.15 to 313.15 K (±0.1 K). The concentrations of the compounds were determined spectrophotometrically (Shimadzu 1800, Kyoto, Japan) in a UV region, with an accuracy of 2–4%. The reported experimental values represent the average of at least four replicate experiments.
(§2) The apparent distribution coefficients were calculated from the molar concentrations of the substance in the phases using the following equation:(10) DCorg/w=C2org/w/C2w/org where DCorg/w is the apparent distribution coefficient, C2org/w and C2w/org are the concentrations (M) of the compound after the distribution in the 1-octanol or n-hexane and water phases, respectively. The apparent distribution coefficients in the mole fraction scale ( DXorg/w ) were calculated by the equation:(11) DXorg/w=X2org/w/X2w/org where X2org/w and X2w/org are the concentrations (mole fract.) of the compound after distribution. The standard Gibbs energy of the transfer ( ΔGtr0) from water to the organic phase was calculated as follows:(12) ΔGtr0=−RT(lnDXorg/w)

[3] = Apparent distribution coefficient, n-hexane/water, isothermal shake-flask; type: physicochemical; settings: 298.15 K
Procedure: as §1, §2

[4] = Hypothetical transfer thermodynamic functions from solvation functions; type: physicochemical; settings: 298.15 K; for TΔStr / ΔGtr / ΔHtr / ΔStr / ζHtr / ζTStr: hypothetical
Procedure: The impact of the specific interactions on the solvation process was estimated by analyzing the thermodynamic functions of the hypothetical transfer from n-hexane—an inert solvent interacting with the drugs only non-specifically—to water, 1-octanol, and ethanol. Besides this, the hypothetic transfer from water to 1-octanol is significant as a model of the drug penetrating through the lipophilic biological membranes. The transferring thermodynamic parameters listed in Table 4 were calculated as a difference (taking into account the sign of the thermodynamic function) between the respective functions in a solvent (1-octanol/water/ethanol) and in n-hexane and between 1-octanol and water.
The relationship between the specific and non-specific solvation thermodynamic contributions was disclosed using the εH and εS parameters calculated as follows:(20) εH=(ΔHspec/ΔHnon−spec)⋅100%where ΔHspec=ΔHtr(n−hexane→solvent)and ΔHnon−spec=ΔHsolv(n−hexane) (21) εS=(ΔSspec/ΔSnon−spec)⋅100%where ΔSspec=ΔStr(n−hexane→solvent)and ΔSnon−spec=ΔSsolv(n−hexane)

[5] = cited from earlier work

CC(O)(CS(=O)(=O)c1ccc(F)cc1)C(=O)Nc1ccc(C#N)c(C(F)(F)F)c1 (stereo not drawn) [BCL, bicalutamide]
Solubility X2 × 10^4 ([1]; 1-octanol, 293.15 K): 2.23 mole fract. | Solubility X2 ([1]; 1-octanol, 298.15 K): 2.57 × 10^−4 mole fract. | Solubility X2 × 10^4 ([1]; 1-octanol, 298.15 K): 2.57 mole fract. | Solubility X2 × 10^4 ([1]; 1-octanol, 303.15 K): 3.00 mole fract. | Solubility X2 × 10^4 ([1]; 1-octanol, 308.15 K): 3.40 mole fract. | Solubility X2 × 10^4 ([1]; 1-octanol, 313.15 K): 3.95 mole fract. | Solubility X2 × 10^3 ([1]; ethanol, 293.15 K): 1.15 mole fract. | Solubility X2 ([1]; ethanol, 298.15 K): 1.42 × 10^−3 mole fract. | Solubility X2 × 10^3 ([1]; ethanol, 298.15 K): 1.42 mole fract. | X2 298.15 ([1]; ethanol, 298.15 K): 1.42 × 10^−3 | Solubility X2 × 10^3 ([1]; ethanol, 303.15 K): 1.74 mole fract. | Solubility X2 × 10^3 ([1]; ethanol, 308.15 K): 2.11 mole fract. | Solubility X2 × 10^3 ([1]; ethanol, 313.15 K): 2.43 mole fract. | solubility in ethanol as compared to 1-octanol ([1]; mole fraction, 298.15 K): 5.5 fold | Solubility X2 × 10^6 ([1]; n-hexane, 293.15 K): 0.74 mole fract. | Solubility X2 ([1]; n-hexane, 298.15 K): 1.07 × 10^−6 mole fract. | Solubility X2 × 10^6 ([1]; n-hexane, 298.15 K): 1.07 mole fract. | X2 298.15 ([1]; n-hexane, 298.15 K): 1.07 × 10^−6 | Solubility X2 × 10^6 ([1]; n-hexane, 303.15 K): 1.50 mole fract. | Solubility X2 × 10^6 ([1]; n-hexane, 308.15 K): 2.04 mole fract. | Solubility X2 × 10^6 ([1]; n-hexane, 313.15 K): 2.76 mole fract. | Solubility X2 × 10^6 ([1]; n-hexane, 318.15 K): 3.63 mole fract. | solubility at 24 h ([1]; n-hexane, organic solvent or mixture, n-hexane, 293.15 K): 5.67 µM (≈ 2.44 µg/mL) | solubility at 24 h ([1]; n-hexane, organic solvent or mixture, n-hexane, 298.15 K): 8.12 µM (≈ 3.49 µg/mL) | solubility at 24 h ([1]; n-hexane, organic solvent or mixture, n-hexane, 303.15 K): 11.3 µM (≈ 4.88 µg/mL) | solubility at 24 h ([1]; n-hexane, organic solvent or mixture, n-hexane, 308.15 K): 15.3 µM (≈ 6.59 µg/mL) | solubility at 24 h ([1]; n-hexane, organic solvent or mixture, n-hexane, 313.15 K): 20.5 µM (≈ 8.83 µg/mL) | solubility at 24 h ([1]; n-hexane, organic solvent or mixture, n-hexane, 318.15 K): 26.8 µM (≈ 11.5 µg/mL) | Solubility X2 × 10^7 ([1]; water, 293.15 K): 1.12 mole fract. | Solubility X2 ([1]; water, 298.15 K): 1.47 × 10^−7 mole fract. | Solubility X2 × 10^7 ([1]; water, 298.15 K): 1.47 mole fract. | X2 298.15 ([1]; water, 298.15 K): 1.47 × 10^−7 | Solubility X2 × 10^7 ([1]; water, 303.15 K): 1.90 mole fract. | Solubility X2 × 10^7 ([1]; water, 308.15 K): 2.35 mole fract. | Solubility X2 × 10^7 ([1]; water, 313.15 K): 2.97 mole fract. | solubility at 24 h ([1]; water, water, 293.15 K): 6.24 µM (≈ 2.69 µg/mL) | solubility at 24 h ([1]; water, water, 298.15 K): 8.14 µM (≈ 3.5 µg/mL) | solubility at 24 h ([1]; water, water, 303.15 K): 10.5 µM (≈ 4.53 µg/mL) | solubility at 24 h ([1]; water, water, 308.15 K): 12.9 µM (≈ 5.57 µg/mL) | solubility at 24 h ([1]; water, water, 313.15 K): 16.4 µM (≈ 7.05 µg/mL) | experimental over calculated distribution coefficient ([2]; 1-octanol/water): 3.3 fold | logP at 24 h ([2]; 1-octanol/water, read-out: logDCoct/w, experimental): 2.82 ± 0.09 | DCoct/w, experimental apparent distribution coefficient ([2]; 1-octanol/water, molarity scale): 662.29 ± 20.22 | ∆logDcalc ([2]; from calculated distribution coefficients): 2.30 | ∆logD ([2]; logDCoct/w − logDChex/w, experimental): 2.55 | DC/calcoct/w, calculated distribution coefficient ([2]; ratio of molar solubilities in 1-octanol and water): 199.02 ± 12.00 | experimental over calculated distribution coefficient ([3]; n-hexane/water): 1.9 fold | DChex/w, experimental apparent distribution coefficient ([3]; n-hexane/water, molarity scale): 1.88 ± 0.04 | DC/calchex/w, calculated distribution coefficient ([3]; ratio of molar solubilities in n-hexane and water): 1.00 | εH ([4]; n-hexane → 1-octanol): 36.6% | εS ([4]; n-hexane → 1-octanol): 30.2% | TΔStr ([4]; n-hexane → 1-octanol): −13.9 kJ⋅mol^−1 | ΔGtr ([4]; n-hexane → 1-octanol): −13.7 kJ⋅mol^−1 | ΔHtr ([4]; n-hexane → 1-octanol): −27.6 kJ⋅mol^−1 | ΔStr ([4]; n-hexane → 1-octanol): −46.6 J⋅mol^−1⋅K^−1 | ζHtr ([4]; n-hexane → 1-octanol): 66.5% | ζTStr ([4]; n-hexane → 1-octanol): 33.5% | εS ([4]; n-hexane → ethanol): 5.0% | TΔStr ([4]; n-hexane → ethanol): −2.3 kJ⋅mol^−1 | ΔGtr ([4]; n-hexane → ethanol): −18 kJ⋅mol^−1 | ΔHtr ([4]; n-hexane → ethanol): −20.3 kJ⋅mol^−1 | ΔStr ([4]; n-hexane → ethanol): −7.7 J⋅mol^−1⋅K^−1 | ζHtr ([4]; n-hexane → ethanol): 89.8% | ζTStr ([4]; n-hexane → ethanol): 10.2% | εH ([4]; n-hexane → water): 16.4% | εS ([4]; n-hexane → water): 37.4% | TΔStr ([4]; n-hexane → water): −17.2 kJ⋅mol^−1 | ΔGtr ([4]; n-hexane → water): 4.8 kJ⋅mol^−1 | ΔHtr ([4]; n-hexane → water): −12.4 kJ⋅mol^−1 | ΔStr ([4]; n-hexane → water): −57.7 J⋅mol^−1⋅K^−1 | ζHtr ([4]; n-hexane → water): 41.9% | ζTStr ([4]; n-hexane → water): 58.1% | TΔStr ([4]; water → 1-octanol): 3.3 kJ⋅mol^−1 | ΔGtr ([4]; water → 1-octanol): −18.5 kJ⋅mol^−1 | ΔHtr ([4]; water → 1-octanol): −15.2 kJ⋅mol^−1 | ΔStr ([4]; water → 1-octanol): 11.1 J⋅mol^−1⋅K^−1 | ζHtr ([4]; water → 1-octanol): 82.2% | ζTStr ([4]; water → 1-octanol): 17.8% | solubility ([5]; aqueous): less than 5 mg∙L^−1 | aqueous solubility ([5]; ref 10): approximately 3.7 μg·mL^−1 | aqueous solubility ([5]; ref 11): 8.85 mg/L (≈ 20.6 µM)

From publication PMC8954523 (Pharmaceutics, 2022)
